Twelve molecules from ChEMBL document CHEMBL1154640, “Application of desirability-based multi(bi)-objective optimization in the design of selective arylpiperazine derivates for the 5-HT1A serotonin receptor” (Eur J Med Chem, 2009) can be followed below.

For experiment [1], the target named is T1, 5-hydroxytryptamine receptor 1A (Homo sapiens, UniProt P08908).
T1 sequence (P08908 whole entry): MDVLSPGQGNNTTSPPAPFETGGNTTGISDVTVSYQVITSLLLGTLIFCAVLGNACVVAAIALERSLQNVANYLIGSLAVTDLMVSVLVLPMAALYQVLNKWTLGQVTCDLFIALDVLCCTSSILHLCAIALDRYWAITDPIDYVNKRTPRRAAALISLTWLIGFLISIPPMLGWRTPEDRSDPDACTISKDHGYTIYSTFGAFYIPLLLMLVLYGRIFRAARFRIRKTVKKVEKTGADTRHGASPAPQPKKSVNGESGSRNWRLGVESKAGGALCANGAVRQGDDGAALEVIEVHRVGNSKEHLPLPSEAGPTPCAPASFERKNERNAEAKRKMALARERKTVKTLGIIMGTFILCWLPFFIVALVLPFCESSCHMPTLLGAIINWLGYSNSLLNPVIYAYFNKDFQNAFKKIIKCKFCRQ
Description: Displacement of [3H]8-OH-DPAT from human recombinant 5-HT1A receptor expressed in HEK293 cells after 120 mins. In kind it is cell-based.

Experiment [2] concerns the target 5-hydroxytryptamine receptor 2A (Rattus norvegicus, UniProt P14842). Description: Displacement of [3H]ketanserin from 5-HT2A receptor in Wistar Hannover rat brain cortex membrane.

Sequence of 5-hydroxytryptamine receptor 2A (P14842 whole entry): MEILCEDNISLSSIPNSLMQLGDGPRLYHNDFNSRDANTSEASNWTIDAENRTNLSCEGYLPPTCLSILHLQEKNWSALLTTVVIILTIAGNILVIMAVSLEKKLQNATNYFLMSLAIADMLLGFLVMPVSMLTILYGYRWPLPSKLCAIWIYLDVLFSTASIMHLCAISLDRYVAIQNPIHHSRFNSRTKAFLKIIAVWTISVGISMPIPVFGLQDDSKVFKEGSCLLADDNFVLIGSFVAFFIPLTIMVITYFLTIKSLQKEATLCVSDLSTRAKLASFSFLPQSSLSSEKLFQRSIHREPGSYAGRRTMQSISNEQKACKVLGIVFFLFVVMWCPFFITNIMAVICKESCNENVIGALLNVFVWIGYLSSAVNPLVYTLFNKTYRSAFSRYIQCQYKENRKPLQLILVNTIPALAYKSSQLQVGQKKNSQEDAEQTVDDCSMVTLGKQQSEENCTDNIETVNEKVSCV

Consider `COc1ccccc1N1CCN(CCCCn2cnc3ccccc3c2=O)CC1`, for which the Ki in experiment [1] was 36.3 nM; in experiment [2] it was 562 nM.
The like results for `O=c1c2ccccc2c(=O)n(-c2ccccc2)n1CCCN1CCN(c2cccc(Cl)c2)CC1` were, in that order, 417 nM and 661 nM.
Taken in the same sequence, the figures for `O=c1ccc(=O)n(-c2ccccc2)n1CCCCN1CCN(c2cccc(Cl)c2)CC1` were 50.1 nM and 1820 nM.
Regarding `COc1ccccc1N1CCN(CCCCn2c(=O)c3ccccc3c(=O)n2-c2ccccc2)CC1`, the Ki is 42.7 nM in experiment [1] and 372 nM in experiment [2].
In the case of `COc1ccccc1N1CCN(CCCn2c(=O)c3ccccc3c(=O)n2-c2ccccc2)CC1`, the Ki in experiment [1] was 30.2 nM; in experiment [2] it was 302 nM.
The like results for `COc1ccccc1N1CCN(CCCCn2c(=O)ccc(=O)n2-c2ccccc2)CC1` were, in that order, 11 nM and 1450 nM.
Taken in the same sequence, the figures for `COc1ccccc1N1CCN(CCCn2c(=O)ccc(=O)n2-c2ccccc2)CC1` were 53.7 nM and 2140 nM.
Turning to `O=c1c2ccccc2ncn1CCCCN1CCN(c2cccc(Cl)c2)CC1`, the results for the Ki in experiment [1] and in experiment [2] were 50.1 nM and 67.6 nM, respectively.
Take `O=c1c2ccccc2c(=O)n(-c2ccccc2)n1CCCCN1CCN(c2cccc(Cl)c2)CC1`: the inhibition constant Ki is 398 nM in experiment [1] and 575 nM in experiment [2].
The like results for `O=c1ccc(=O)n(-c2ccccc2)n1CCCN1CCN(c2cccc(Cl)c2)CC1` were, in that order, 204 nM and 269 nM.
For the molecule `O=c1c2ccccc2ncn1CCCN1CCN(c2cccc(Cl)c2)CC1`, the inhibitory constant (Ki) is 234 nM in experiment [1] and 15.8 nM in experiment [2].
Taken in the same sequence, the figures for `COc1ccccc1N1CCN(CCCn2cnc3ccccc3c2=O)CC1` were 100 nM and 457 nM.
